This passage reports RP-LC retention time results from the METLIN SMRT retention time set (Domingo-Almenara et al. 2019).

The data set in a line: gradient 5% acetonitrile 3 min, to 50% in 2 min, to 85% in 15 min, held 3 min, 100 µL/min. To be noted: column: Zorbax Extend-C18 2.1 x 50 mm; eluents: water / acetonitrile, 0.1% formic acid. In outline: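 Retention times come from adduct peaks that were picked computationally and then checked by hand. The standards, pure and pooled in mixtures of ~100 molecules, were run on a Zorbax Extend-C18 column (2.1 × 50 mm, 1.8 μm) at 100 μL/min with water and acetonitrile, each with 0.1% formic acid. Detection was by quadrupole time-of-flight mass spectrometry in positive and negative ionization mode, with a dead volume of 40 μL and a dwell volume of 900 μL.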
`COc1ccccc1CNS(=O)(=O)c1cc(-c2[nH]ncc2C(=O)N(C)C)oc1C` registered an RP-LC retention time of 666 s.

Regarding `Cc1cccc(Cn2c(=O)n(C)c(=O)c3snc(-c4ccccn4)c32)c1`, the RP-LC retention time turned out to be 925 s. The value for `CCOC(=O)c1noc2ncnc(Nc3cccc(C)c3C)c12` was 948 s; that for `O=C(NCC1CCS(=O)(=O)C1)c1nc2ccccc2s1` (stereo not drawn) was 659 s.

Regarding `CCOC(=O)C1CCN(S(=O)(=O)c2cc3c4c(c2)CCC(=O)N4CCC3)CC1`, the RP-LC retention time was found to be 769 s. For `CCCN1C(=O)CCc2cc(NS(=O)(=O)c3ccc(CC)cc3)ccc21` the value was 907 s; for `Cc1ccc(-c2noc(Cn3c(=O)n(C(C)C)c(=O)c4ccccc43)n2)cc1C`, 1220 s; for `COc1ccccc1CCC(=O)N1CCC2(CC1)NCc1ccccc1-n1ccnc12`, 623 s. Take `Cc1ccc(C(=O)Nc2nccnc2C(=O)NCC2CCCO2)cc1` (stereo not drawn): the RP-LC retention time was determined as 808 s. The value for `CCc1ccc2[nH]c3c(c(=O)c2c1)CN(CC(=O)Nc1cccc(C#N)c1)CC3` was 626 s; that for `CC1(C(=O)NCc2ccc(F)cc2)CN(S(C)(=O)=O)CC(=O)N1c1cccc(Cl)c1` (stereo not drawn) was 805 s; that for `CCCCNC(=O)c1nc(Nc2cccc(C)c2)c2ccccc2n1` was 858 s. For `Cn1ccc2c(cc(C(=O)NCc3ccc(C(F)(F)F)cc3)n2C)c1=O` the value was 754 s.

Compound `O=C(c1csc(Nc2ccc(OC(F)F)cc2)n1)N1CCN(c2ncccn2)CC1` showed an RP-LC retention time of 774 s. For `Cc1nc2cc(-c3noc(-c4cccc(F)c4)n3)ccc2o1` the value was 1110 s; for `COc1ccc(N2CC(c3nc(-c4cc(OC)c(OC)c(OC)c4)no3)CC2=O)cc1Cl` (stereo not drawn), 905 s; for `COc1cc(NC(=O)c2noc3c2CCCC3)cc(OC)c1OC`, 876 s. For `Cc1ccc(-c2nnc(Cc3nc(-c4ccc5c(c4)OCO5)no3)o2)cc1C` the value was 1070 s; for `Cc1nn(C)c2c(=O)n(CC(=O)N3CCN(c4ccccn4)CC3)ccc12`, 558 s; for `CC(=O)Nc1ccc(C2(C(=O)NCc3ccccc3C)CCC2)cc1`, 791 s. The value for `Cc1c(Cl)cccc1NC(=O)C(C)C1CCN(C(=O)Nc2ccc(F)cc2)CC1` (stereo not drawn) was 904 s; that for `CCCn1ccc2sc(C)c(C(=O)NCc3cc(OC)ccc3OC)c2c1=O` was 889 s; that for `Cc1cccc(NC(=O)C2CCCN2S(=O)(=O)c2cc3c(cc2C)NC(=O)C(C)O3)c1` (stereo not drawn) was 813 s. `O=C(Nc1ccccc1)C1CCCN(S(=O)(=O)c2cc(-c3noc(C4CCC4)n3)cs2)C1` (stereo not drawn): the RP-LC retention time worked out at 1140 s. For `Cc1ccnc(N2CCCC(C(=O)NCc3ccc(F)cc3Cl)C2)n1` (stereo not drawn) the value was 792 s; for `O=C1Oc2ccccc2C(=O)/C1=C1/C=C(c2ccccc2)SS1`, 1210 s. For `Cc1ccc(CNC(=O)C2(C)CCCN(C(=O)Nc3ccc(C)c(F)c3)C2)cc1` (stereo not drawn) the value was 857 s. The value for `CC(C)(C)NC(=O)N1CCOc2ccccc21` was 892 s; that for `CCOc1ccc(C2Cn3nnc(-c4nc(-c5ccccc5OCC)no4)c3CO2)cc1` (stereo not drawn) was 1200 s; that for `COc1ccc(-n2nc(C(=O)N3CCN(c4ccccn4)CC3)c3c4ccccc4n(C)c3c2=O)cc1` was 676 s.

Take `COc1cccc(NC(=O)Cn2nc3cc(C)nc(Nc4ccc(F)c(C)c4)n3c2=O)c1`: the RP-LC retention time is 1040 s.

For the compound `COc1ccc(Cl)cc1NC(=O)Cn1c(=O)n(-c2ccc(C)cc2)c(=O)c2c1cc(C)n2C`, the RP-LC retention time worked out at 984 s. The value for `O=C(CC1(O)C(=O)Nc2c(Cl)cc(Cl)cc21)c1ccc([N+](=O)[O-])cc1` (stereo not drawn) was 800 s; that for `CCOc1ccc(NC(=O)Nc2cc(C(C)C)ccc2C)cc1` was 1160 s; that for `CCc1ccc(CNC(=O)C2CCCN(c3nn4c(=O)c5c(nc4s3)CCCC5)C2)cc1` (stereo not drawn) was 983 s. `CCCC(=O)N1CCC2(CC1)C(=O)N(C)c1ccccc12` registered an RP-LC retention time of 764 s. `O=C(Cn1ccnc1)N1CCC(OCc2nc(C3CC3)no2)CC1` displayed an RP-LC retention time of 582 s. The value for `COc1ccc(Cl)cc1N1CC(c2nc(-c3ccccc3)no2)CC1=O` (stereo not drawn) was 973 s; that for `Cc1ccccc1CN1C[C@@H]2C(=O)N(Cc3ccc4c(c3)OCO4)C(=O)[C@@H]2C1` was 824 s. The value for `O=C1NCCCCCN(C(=O)c2ccoc2)[C@@H]2C[C@@H](C(=O)N3CCc4ccccc4C3)C[C@H]12` was 753 s; that for `COc1cccc(CN2C[C@@H]3C(=O)N(Cc4ccc5c(c4)OCO5)C(=O)[C@@H]3C2)c1OC` was 704 s. For `CC(=O)Nc1ccc(C(=O)N2CC(C)CC(C)C2)o1` (stereo not drawn) the value was 739 s; for `Cc1nnc(-c2nnc(NCc3ccccc3Cl)c3ccccc23)o1`, 909 s. For the compound `COCCOC(=O)C1=C(C)NC2=C(C(=O)CC(C)(C)C2)C1c1cccc(OC)c1OC` (stereo not drawn), the RP-LC retention time worked out at 787 s. `Cc1ccc(N2C(=O)CCS2(=O)=O)cc1S(=O)(=O)N1c2ccccc2CC1C` (stereo not drawn) yielded an RP-LC retention time of 867 s. For `Cc1ccc(-c2ncccc2CNS(=O)(=O)Cc2ccccc2F)cc1` the value was 693 s. The value for `Cc1cc(C)cc(NC(=O)N2CCCC2c2nc(-c3ccccc3C)no2)c1` (stereo not drawn) was 1110 s; that for `CCS(=O)(=O)Nc1ccc2nc(N3CCN(c4ccc(F)cc4)CC3)cc(C(=O)O)c2c1` was 653 s; that for `CCCCNC(=O)C(=O)NCC(c1ccc2c(c1)OCO2)N1CCOCC1` (stereo not drawn) was 628 s. For `CCn1nccc1-c1cccc(-c2noc(-c3ccc(F)cc3F)n2)c1` the value was 1270 s. `Cc1ccc(NC(=O)Cn2nc(N(C)C)c3ccccc3c2=O)c(Br)c1`: the RP-LC retention time was determined as 1010 s.

Consider `Cc1ccc(CNC(=O)Cn2cnc3c(c(C)c(C)n3-c3ccc(Cl)cc3)c2=O)o1`, for which the RP-LC retention time was determined as 930 s. For `O=C(c1ccc(CS(=O)c2ccccc2)o1)N1CCN(c2ccccn2)CC1` (stereo not drawn) the value was 560 s; for `Cc1ccc(Sc2nccnc2N2CCC(C(=O)Nc3cccc(Br)c3)CC2)cc1`, 1260 s; for `CCOCC(=O)Nc1ccc(-c2ccc(S(C)(=O)=O)nn2)cc1`, 645 s. The value for `CCS(=O)(=O)c1ccc(-c2ccc(NC(=O)Cc3ccc(F)cc3)cc2)nn1` was 764 s; that for `Cc1cc(Cl)ccc1N1C(=O)CN(S(C)(=O)=O)CC1(C)C(=O)NC1CCCCCCC1` (stereo not drawn) was 1010 s; that for `N#Cc1c(N)nc(SCc2csc(-c3ccc(Cl)cc3)n2)c(C#N)c1-c1ccc(OCCO)cc1` was 1130 s.
